In patent publication US20240158446A1, “CYCLIC COMPOUND HAVING SELECTIVE INHIBITORY ACTION ON KRAS OVER HRAS AND NRAS” (CHUGAI SEIYAKU KABUSHIKI KAISHA, priority 2021, published 2024):

Legend:
[1] = target: GDP-bound NRAS wild-type protein (Homo sapiens, UniProt P01111); assay: Binding to NRAS by surface plasmon resonance (SPR), Single Cycle Kinetics; conditions: for NRAS/KRAS (ratio of KD value with respect to GDP-bound NRAS wild-type protein to KD value with respect to KRAS): SPR KD ratio NRAS/KRAS, class symbols
[2] = target: GDP-bound HRAS wild-type protein (Homo sapiens, UniProt P01112); assay: Binding to HRAS by surface plasmon resonance (SPR), Single Cycle Kinetics; conditions: for HRAS/KRAS (ratio of KD value with respect to GDP-bound HRAS wild-type protein to KD value with respect to KRAS): SPR KD ratio HRAS/KRAS, class symbols
[3] = SPR, GDP-bound NRAS wild-type protein vs GDP-bound KRAS wild-type protein
[4] = SPR, GDP-bound HRAS wild-type protein vs GDP-bound KRAS wild-type protein
[5] = SPR, GDP-bound NRAS wild-type protein vs GDP-bound KRAS wild-type protein, KD ratio class
[6] = SPR, GDP-bound HRAS wild-type protein vs GDP-bound KRAS wild-type protein, KD ratio class

Sequence of GDP-bound HRAS wild-type protein (P01112 whole entry): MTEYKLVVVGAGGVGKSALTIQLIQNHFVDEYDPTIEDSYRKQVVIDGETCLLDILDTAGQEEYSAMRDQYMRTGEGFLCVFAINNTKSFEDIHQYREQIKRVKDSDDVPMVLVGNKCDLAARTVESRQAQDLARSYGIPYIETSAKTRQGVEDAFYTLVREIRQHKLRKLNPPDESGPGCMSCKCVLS
Sequence of GDP-bound NRAS wild-type protein (P01111 whole entry): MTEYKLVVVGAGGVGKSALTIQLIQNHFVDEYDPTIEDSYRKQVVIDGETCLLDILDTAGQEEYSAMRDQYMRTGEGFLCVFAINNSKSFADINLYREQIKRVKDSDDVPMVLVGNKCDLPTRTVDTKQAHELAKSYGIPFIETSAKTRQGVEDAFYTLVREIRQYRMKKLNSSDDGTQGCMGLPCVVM

SMILES	NRAS/KRAS (ratio of KD value with respect to GDP-bound NRAS wild-type protein to KD value with respect to KRAS) [1]	HRAS/KRAS (ratio of KD value with respect to GDP-bound HRAS wild-type protein to KD value with respect to KRAS) [2]	also measured
CCC[C@H]1C(=O)N[C@@H]([C@@H](C)CC)C(=O)N(C)CC(=O)N(C)[C@H]2C/C=C\CCN(C2=O)[C@@H](Cc2ccc(C(F)(F)F)cc2)C(=O)N(C)CC(=O)N[C@@H](CCc2ccc(C(F)F)c(OC)c2)C(=O)N2C[C@H](OCC)C[C@H]2C(=O)NC2(CC(C)(C)C2)C(=O)N(C)[C@@H](C2CCCC2)C(=O)N(C)[C@H](C(=O)N(C)C)CC(=O)N1C [PP2868]	A (a compound having 10 or more and less than 20 is denoted as A)	A (a compound having 10 or more and less than 20 is denoted as A)	–
CCO[C@@H]1C[C@H]2C(=O)NC3(CCC3)C(=O)N(C)[C@@H](C3CCCC3)C(=O)N(C)[C@H](C(=O)N3CCOCC3)CC(=O)N(C)[C@@H](CC(C)(C)C)C(=O)N[C@@H]([C@@H](C)CC)C(=O)N(C)CC(=O)N(C)[C@H]3CCCCCN(C3=O)[C@@H](Cc3ccc(C(F)(F)F)cc3)C(=O)N(C)CC(=O)N[C@@H](CCc3cc(F)c(C(F)(F)F)c(F)c3)C(=O)N2C1 [PP0684]	–	–	NRAS/KRAS (ratio of KD value with respect to NRAS to KD value with respect to KRAS) [1, 3]: B (a compound having 3 or more and less than 10 is denoted as B); HRAS/KRAS (ratio of KD value with respect to HRAS to KD value with respect to KRAS) [2, 4]: B (a compound having 3 or more and less than 10 is denoted as B)
CCC[C@H]1C(=O)N[C@@H]([C@@H](C)CC)C(=O)N(C)CC(=O)N(C)[C@H]2C/C=C\CCN(C2=O)[C@@H](Cc2ccc(C(F)(F)F)cc2)C(=O)N(C)CC(=O)N[C@@H](CCc2cc(C)c(C3CC3)c(C)c2)C(=O)N2C[C@H](OCC)C[C@H]2C(=O)NC2(CC(C)(C)C2)C(=O)N(C)[C@@H](C2CCCC2)C(=O)N(C)[C@H](C(=O)N(C)C)CC(=O)N1C [PP2863]	A (a compound having 10 or more and less than 20 is denoted as A)	A (a compound having 10 or more and less than 20 is denoted as A)	–
CCC[C@H]1C(=O)N[C@@H]([C@@H](C)CC)C(=O)N(C2CC2)CC(=O)N(C)[C@H]2C/C=C\CCN(C2=O)[C@@H](Cc2ccc(C)cc2)C(=O)N(C)CC(=O)N[C@@H](CCc2cc(F)c3c(c2)OCC3)C(=O)N2C[C@H](OCC)C[C@H]2C(=O)NC2(CC(C)(C)C2)C(=O)N(C)[C@@H](C2CCCC2)C(=O)N(C)[C@H](C(=O)N(C)C)CC(=O)N1C [PP2880]	A (a compound having 10 or more and less than 20 is denoted as A)	A (a compound having 10 or more and less than 20 is denoted as A)	–
CCO[C@@H]1C[C@H]2C(=O)NC3(CCC3)C(=O)N(C)[C@@H](C3CCCC3)C(=O)N(C)[C@H](C(=O)N3CCOCC3)CC(=O)N(C)[C@@H](CC(C)C)C(=O)N[C@@H]([C@@H](C)CC)C(=O)N(C)CC(=O)N(C)[C@H]3CCCCCN(C3=O)[C@@H](Cc3ccc(F)cc3)C(=O)N(C)CC(=O)N[C@@H](CCc3ccc(C(F)(F)F)c(Cl)c3)C(=O)N2C1 [PP0968]	–	–	NRAS/KRAS (ratio of KD value for NRAS to KD value for KRAS) [1, 3]: B (a compound having 3 or more and less than 10 is denoted as B); HRAS/KRAS (ratio of KD value for HRAS to KD value for KRAS) [2, 4]: B (a compound having 3 or more and less than 10 is denoted as B)
CCO[C@@H]1C[C@H]2C(=O)NC3(CCC3)C(=O)N(C)[C@@H](C3CCCC3)C(=O)N(C)[C@H](C(=O)N(C)C)CC(=O)N(C)[C@@H](CC3CC3)C(=O)N[C@@H]([C@@H](C)CC)C(=O)N(C)CC(=O)N(C)[C@H]3C/C=C\CCN(C3=O)[C@@H](Cc3ccc(F)cc3C)C(=O)N(C)CC(=O)N[C@@H](CCc3cc(F)c(C(F)(F)F)c(F)c3)C(=O)N2C1 [PP1528]	–	–	NRAS/KRAS (ratio of KD value for NRAS to KD value for KRAS) [1, 5]: A (a compound having 10 or more and less than 20 is denoted as A); HRAS/KRAS (ratio of KD value for HRAS to KD value for KRAS) [2, 6]: B (a compound having 3 or more and less than 10 is denoted as B)
CCC[C@H]1C(=O)N[C@@H]([C@@H](C)CC)C(=O)N(C)CC(=O)N(C)[C@H]2C/C=C\CCN(C2=O)[C@@H](Cc2ccc(C(F)(F)F)cc2)C(=O)N(C)CC(=O)N[C@@H](CCc2ccc(CC)c(F)c2)C(=O)N2C[C@H](OCC)C[C@H]2C(=O)NC2(CC(C)(C)C2)C(=O)N(C)[C@@H](C2CCCC2)C(=O)N(C)[C@H](C(=O)N(C)C)CC(=O)N1C [PP2856]	A (a compound having 10 or more and less than 20 is denoted as A)	A (a compound having 10 or more and less than 20 is denoted as A)	–
CCC(CC)[C@H]1C(=O)N(C)[C@H](C(=O)N(C)C)CC(=O)N(C)[C@@H](COC)C(=O)N[C@@H]([C@@H](C)CC)C(=O)N(C)CC(=O)N(C)[C@H]2C/C=C\CCN(C2=O)[C@@H](Cc2ccc(C)cc2)C(=O)N(C)CC(=O)N[C@@H](CCc2ccc(C(F)(F)F)c(Cl)c2)C(=O)N2CC3(CC3)C[C@H]2C(=O)NC2(CC(C)(C)C2)C(=O)N1C [PP2967]	AA (a compound having 20 or more is denoted as AA)	A (a compound having 10 or more and less than 20 is denoted as A)	–
CCOC[C@H]1C(=O)N[C@@H]([C@@H](C)CC)C(=O)N(C)CC(=O)N(C)[C@H]2C/C=C\CCN(C2=O)[C@@H](Cc2ccc(C(C)(F)F)cc2)C(=O)N(C)CC(=O)N[C@@H](CCc2ccc(C(F)(F)F)c(OC)c2)C(=O)N2C[C@@H](C)C[C@H]2C(=O)NC2(CC(C)(C)C2)C(=O)N(C)[C@@H](C2CCCC2)C(=O)N(C)[C@H](C(=O)N(C)CC)CC(=O)N1C [PP2699]	A (a compound having 10 or more and less than 20 is denoted as A)	B (a compound having 3 or more and less than 10 is denoted as B)	–
CCCOC[C@H]1C(=O)N[C@@H]([C@@H](C)CC)C(=O)N(C)CC(=O)N(C)[C@H]2C/C=C\CCN(C2=O)[C@@H](Cc2ccc(C)cc2)C(=O)N(C)CC(=O)N[C@@H](CCc2ccc(C(F)(F)F)c(OC)c2)C(=O)N2C[C@H](OCC)C[C@H]2C(=O)N(C)C2(CCC2)C(=O)N(C)[C@@H](C2CCCC2)C(=O)N(C)[C@H](C(=O)N(C)C)CC(=O)N1C [PP2326]	–	–	NRAS/KRAS (ratio of KD value for NRAS to KD value for KRAS) [1, 3]: A (a compound having 10 or more and less than 20 is denoted as A); HRAS/KRAS (ratio of KD value for HRAS to KD value for KRAS) [2, 4]: B (a compound having 3 or more and less than 10 is denoted as B)
CC[C@H](C)[C@@H]1NC(=O)[C@H](CC2CC2)N(C)C(=O)C[C@@H](C(=O)N2CCCC2)N(C)C(=O)[C@H](C2CCCC2)N(C)C(=O)C2(CCCC2)NC(=O)[C@@H]2C[C@@H](C(F)(F)F)CN2C(=O)[C@H](CCc2cc(F)c(C(F)(F)F)c(F)c2)NC(=O)CN(C)C(=O)[C@H](Cc2ccc(F)cc2)N2CC/C=C\C[C@@H](C2=O)N(C)C(=O)CN(C)C1=O [PP1509]	–	–	NRAS/KRAS (ratio of KD value for NRAS to KD value for KRAS) [1, 5]: A (a compound having 10 or more and less than 20 is denoted as A); HRAS/KRAS (ratio of KD value for HRAS to KD value for KRAS) [2, 6]: A (a compound having 10 or more and less than 20 is denoted as A)
CCC[C@H]1C(=O)N[C@@H]([C@@H](C)CC)C(=O)N(CCC)CC(=O)N(C)[C@H]2C/C=C\CCN(C2=O)[C@@H](Cc2ccc(C)cc2)C(=O)N(C)CC(=O)N[C@@H](CCc2cc(F)c(C(F)(F)F)c(F)c2)C(=O)N2C[C@H](OCC)C[C@H]2C(=O)NC2(CC(C)(C)C2)C(=O)N(C)[C@@H](C2CCCC2)C(=O)N(C)[C@H](C(=O)N(C)C)CC(=O)N1C [PP2108]	–	–	NRAS/KRAS (ratio of KD value for NRAS to KD value for KRAS) [1, 3]: A (a compound having 10 or more and less than 20 is denoted as A); HRAS/KRAS (ratio of KD value for HRAS to KD value for KRAS) [2, 4]: A (a compound having 10 or more and less than 20 is denoted as A)
